The subject of the assay is TAG-β signalling (PAI-1 promoter, HepG2 cells). The assay can be described thus: Assay 1: PAI-1 promoter luciferase reporter assay in HepG2 cells exposed to TAG-β. It is filed as cell-based. Particulars: for IC50: Homo sapiens, HepG2. How it is done:
The assay was performed in HepG2 cells stably transfected with the PAI-1 promoter (known to be a strong TAG-β responsive promoter) linked to a luciferase (firefly) reporter gene. The compounds were selected on their ability to inhibit luciferase activity in cells exposed to TAG-β. In addition cells were transfected with a second luciferase (Renilla) gene which was not driven by a TAG-β responsive promoter and was used as a toxicity control.
(96 well-)microplates are seeded, using a multidrop apparatus, with the stably transfected cell line at a concentration of 35000 cells per well in 200 μl of serum-containing medium. These plates are placed in a cell incubator.
18 to 24 hours later (Day 2), cell-incubation procedure is launched. Cells are incubated with TAG-β and a candidate compound (TAG-β inhibitor) at concentrations in the range 50 nM to 10 μM (final concentration of DMSO 1%). The final concentration of TAG-β(rhTGFβ-1) used in the test is 1 ng/mL. Cells are incubated with a candidate compound 15-30 mins prior to the addition of TAGβ. The final volume of the test reaction is 150 μl. Each well contains only one candidate compound and its effect on the PAI-1 promoter is monitored.
Columns 11 and 12 are employed as controls. Column 11 contains 8 wells in which the cells are incubated in the presence of TAGβ, without a candidate compound. Column 11 is used to determine the ‘reference TAG-β induced firefly luciferase value’ against which values measured in the test wells (to quantify inhibitory activity) may be compared. In wells A12 to D12, cells are grown in medium without TAG-β. The firefly luciferase values obtained from these positions are representive of the ‘basal firefly luciferase activity’. In wells E12 to H12, cells are incubated in the presence of TAG-β and 500 μM CPO (Cyclopentenone, Sigma), a cell toxic compound.
12 to 18 hours later (day 3), the luciferase quantification procedure is launched. The following reactions are performed using reagents obtained from a Dual Luciferase Assay Kit (Promega). Cells are washed and lysed with the addition of 10 μl of passive lysis buffer (Promega). Following agitation (15 to 30 mins), luciferase activities of the plates are read in a dual-injector luminometer (BMG lumistar). For this purpose, 50 μl of luciferase assay reagent and 50 μl of ‘Stop & Glo’ buffer are injected sequentially to quantify the activities of both luciferases. The mean Luciferase activity value obtained in wells A11 to H11 (Column 11, TAG-β only) is considered to represent 100% and values obtained in wells A12 to D12 (cells in medium alone) gives a basal level (0%). For each of the compounds tested, a concentration response curve is constructed from which an IC50 value can be determined graphically.
Background: Reporter assays use an easily measured gene product as a stand-in for the process of interest.

Where only a bound is given, the exact number is not on record here.

Regarding `O=C1C=CCC1` [CPO, Cyclopentenone, reference compound], the “firefly and renilla luciferase activities relative to column 11 (TAG-β only)” value (500 μM CPO with TAG-β, toxicity control wells E12 to H12) is “around 50%”. One may read the IC50 as the concentration needed to halve the response being measured. The compound `Cc1cccc(-c2nc(N)sc2-c2ccc3ncccc3n2)n1` [Example 3, 4-(6-Methyl-pyridin-2-yl)-5-([1,5]naphthyridin-2-yl)-1,3-thiazol-2-amine] registered an IC50 of at most 5 µM. The same measure, in the same setting: for `Nc1nc(-c2ccccn2)c(-c2ccc3ncccc3n2)s1` [Example 2, 5-([1,5]Naphthyridin-2-yl)4-pyridin-2-yl-1,3-thiazol-2-amine] the value was at most 5 µM; for `Nc1nc(-c2ccccn2)c(-c2ccnc3ccccc23)s1` [Example 1, 4-(Pyridin-2-yl)-5-quinolin-4-yl-1,3-thiazol-2-amine], at most 5 µM.
